Data as given in ChEMBL document CHEMBL6074668 (J Med Chem, 2024).

Experiments:
[1] = biological target: T1, Kappa-type opioid receptor (Homo sapiens, UniProt P41145); experiment: Binding affinity to kappa opioid receptor (unknown origin) by radioligand displacement assay
[2] = biological target: 5-hydroxytryptamine receptor 2A (Homo sapiens, UniProt P28223)
[3] = biological target: T2, Mu-type opioid receptor (Homo sapiens, UniProt P35372); experiment: Agonist activity at human mu opioid receptor expressed in CHO-K1 cells assessed as inhibition of forskolin-stimulated cAMP accumulation by HitHunter assay based luminescence analysis; assay type: functional, cell-based
[4] = Binding affinity to alpha7 […] receptor (unknown origin) by radioligand displacement assay; parameters: species or system Homo sapiens
[5] = biological target: T3, Alpha-1B adrenergic receptor (Homo sapiens, UniProt P35368); experiment: Binding affinity to alpha1B adrenergic receptor (unknown origin) by radioligand displacement assay
T3 sequence (P35368 whole entry): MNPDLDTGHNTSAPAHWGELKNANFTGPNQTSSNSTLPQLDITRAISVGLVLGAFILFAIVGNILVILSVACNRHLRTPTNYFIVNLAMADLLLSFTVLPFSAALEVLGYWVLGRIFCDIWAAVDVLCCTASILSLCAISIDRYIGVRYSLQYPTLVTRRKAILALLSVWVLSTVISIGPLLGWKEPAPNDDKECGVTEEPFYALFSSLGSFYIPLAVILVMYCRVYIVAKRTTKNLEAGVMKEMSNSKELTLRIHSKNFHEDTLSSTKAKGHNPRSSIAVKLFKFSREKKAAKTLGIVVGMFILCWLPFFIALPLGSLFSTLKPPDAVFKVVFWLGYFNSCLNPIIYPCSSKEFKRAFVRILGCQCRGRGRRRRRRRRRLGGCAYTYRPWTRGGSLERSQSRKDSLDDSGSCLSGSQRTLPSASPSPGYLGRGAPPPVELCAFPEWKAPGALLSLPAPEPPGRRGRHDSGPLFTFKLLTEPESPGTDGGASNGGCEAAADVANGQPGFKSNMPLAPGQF

[6] = biological target: T2, Mu-type opioid receptor; experiment: Displacement of [3H]DAMGO from mu opioid receptor (unknown origin) expressed in CHO cell membrane by competitive radioligand binding assay; assay type: cell membranes
[7] = biological target: T4, Alpha-2A adrenergic receptor (Homo sapiens, UniProt P08913); experiment: Binding affinity to alpha2A adrenergic receptor (unknown origin) by radioligand displacement assay
T4 sequence (P08913 whole entry): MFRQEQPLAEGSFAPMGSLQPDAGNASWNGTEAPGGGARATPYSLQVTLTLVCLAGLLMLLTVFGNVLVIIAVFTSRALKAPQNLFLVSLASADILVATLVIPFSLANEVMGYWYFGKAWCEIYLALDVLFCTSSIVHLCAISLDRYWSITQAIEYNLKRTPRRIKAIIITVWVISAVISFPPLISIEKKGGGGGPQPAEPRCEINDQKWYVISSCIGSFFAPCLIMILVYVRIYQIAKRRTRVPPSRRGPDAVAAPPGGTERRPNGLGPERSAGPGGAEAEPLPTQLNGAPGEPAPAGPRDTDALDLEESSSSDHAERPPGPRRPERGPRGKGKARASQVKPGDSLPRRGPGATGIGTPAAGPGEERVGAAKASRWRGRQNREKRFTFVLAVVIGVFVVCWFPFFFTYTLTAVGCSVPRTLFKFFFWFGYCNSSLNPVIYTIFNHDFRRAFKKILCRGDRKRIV

[8] = biological target: T1, Kappa-type opioid receptor; experiment: Displacement of [3H]U69593 from kappa opioid receptor (unknown origin) expressed in human U2OS cell membrane by competitive radioligand binding assay; assay type: cell membranes
[9] = biological target: Sodium-dependent noradrenaline transporter (Homo sapiens, UniProt P23975)
[10] = biological target: 5-hydroxytryptamine receptor 7 (Homo sapiens, UniProt P34969); experiment: Binding affinity to 5HT7A receptor (unknown origin) by radioligand displacement assay
[11] = biological target: 5-hydroxytryptamine receptor 2B (Homo sapiens, UniProt P41595); experiment: Binding affinity to 5HT2B receptor (unknown origin) by radioligand displacement assay
[12] = biological target: T5, Alpha-1D adrenergic receptor (Homo sapiens, UniProt P25100); experiment: Binding affinity to alpha1D adrenergic receptor (unknown origin) by radioligand displacement assay
T5 sequence (P25100 whole entry): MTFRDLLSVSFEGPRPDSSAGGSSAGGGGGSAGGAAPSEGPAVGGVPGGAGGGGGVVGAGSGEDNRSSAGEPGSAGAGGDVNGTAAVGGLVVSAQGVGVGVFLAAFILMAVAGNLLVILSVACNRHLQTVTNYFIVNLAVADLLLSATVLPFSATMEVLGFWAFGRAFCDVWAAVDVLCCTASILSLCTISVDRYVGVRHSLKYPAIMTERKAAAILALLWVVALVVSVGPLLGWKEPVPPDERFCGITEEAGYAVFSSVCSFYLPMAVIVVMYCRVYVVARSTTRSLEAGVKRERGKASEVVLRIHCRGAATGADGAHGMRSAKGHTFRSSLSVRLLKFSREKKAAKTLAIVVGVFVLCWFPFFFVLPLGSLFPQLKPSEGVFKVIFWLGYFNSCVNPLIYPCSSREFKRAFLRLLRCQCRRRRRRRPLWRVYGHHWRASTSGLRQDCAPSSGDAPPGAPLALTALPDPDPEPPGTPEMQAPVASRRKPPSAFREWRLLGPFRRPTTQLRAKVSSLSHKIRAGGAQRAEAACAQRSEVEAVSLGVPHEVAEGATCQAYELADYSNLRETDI

[13] = biological target: T6, 5-hydroxytryptamine receptor 3A (Homo sapiens, UniProt P46098); experiment: Binding affinity to 5HT3 receptor (unknown origin) by radioligand displacement assay
T6 sequence (P46098 whole entry): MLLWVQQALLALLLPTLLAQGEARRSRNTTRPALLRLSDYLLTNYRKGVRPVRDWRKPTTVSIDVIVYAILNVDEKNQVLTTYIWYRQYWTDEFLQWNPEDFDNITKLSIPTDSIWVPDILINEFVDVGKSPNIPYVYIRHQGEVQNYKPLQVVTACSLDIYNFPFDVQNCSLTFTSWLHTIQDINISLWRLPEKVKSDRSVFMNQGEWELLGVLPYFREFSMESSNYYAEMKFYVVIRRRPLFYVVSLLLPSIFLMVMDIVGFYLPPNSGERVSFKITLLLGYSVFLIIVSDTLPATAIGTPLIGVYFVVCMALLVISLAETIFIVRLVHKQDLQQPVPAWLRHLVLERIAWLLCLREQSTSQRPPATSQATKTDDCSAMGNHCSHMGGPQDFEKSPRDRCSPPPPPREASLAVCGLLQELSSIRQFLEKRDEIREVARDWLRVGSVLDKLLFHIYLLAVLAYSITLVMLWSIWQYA

[14] = Binding affinity to Sigma2 opioid receptor (unknown origin) by radioligand displacement assay; parameters: species or system Homo sapiens
[15] = biological target: 5-hydroxytryptamine receptor 5A (Homo sapiens, UniProt P47898); experiment: Binding affinity to 5HT5A receptor (unknown origin) by radioligand displacement assay

In the case of `C/C=C1/CN2CC[C@]34C(=C(C(=O)OC)[C@H]1C[C@H]23)Nc1ccc(I)cc14`, the Ki [1] is reported as 1 nM, the Ki [2] is reported as 2310 nM and the EC50 [3] is reported as 41000 nM. For the same compound, the Ki [4] was 5490 nM, the Ki [5] was 2020 nM and the Ki [6] was 3600 nM. It also gave a Ki [7] of 732 nM, a Ki [8] of 0.087 nM and a Ki [9] of 3440 nM. It also gave a Ki [10] of 1380 nM, a Ki [11] of 767 nM and a Ki [12] of 1140 nM. For the same compound, the Ki [13] was 384 nM, the Ki [14] was 2220 nM and the Ki [15] was 829 nM.
